With `C=CC(=O)N(C)C` the ready biodegradability was “not readily biodegradable”.
For `CC(=O)OCc1cnc(N)c(C#N)n1`, the ready biodegradability was “readily biodegradable”.
For `C=CC1CCC(O)C(O)C1` (stereo not given), the ready biodegradability was “not readily biodegradable”.
In the case of `C1=CC(c2ccc(C3CC=CCC3)cc2)CCC1` (stereo not given), the ready biodegradability was “not readily biodegradable”.
For `O=C1CCCCCCCCCCCN1`, the ready biodegradability was “not readily biodegradable”.
In the case of `CCc1nc(CC)nc(NS(=O)(=O)c2ccc(N)cc2)n1`, the ready biodegradability was “not readily biodegradable”.
In the case of `OCc1ccccc1`, the ready biodegradability was “readily biodegradable”.
In the case of `O=C(O)CCCCC[N+](=O)[O-]`, the ready biodegradability was “readily biodegradable”.
For `NCCCCCCN`, the ready biodegradability was “readily biodegradable”.

Compared with `CCCC(Br)CBr` (stereo not given), `CCCCS` is higher in log10 vapour pressure (mmHg): 0.153 for the first, 1.66 for the second.

Going from `Clc1ccccc1-c1ccccc1` to `OCc1ccccc1`, the log10 vapour pressure (mmHg) rises from -2.86 to -1.03.

Compared with `N#CCCN`, `NCCCCCCN` is lower in log10 vapour pressure (mmHg): -0.0655 for the first, -0.928 for the second.

First: CC(C)(O)C(=O)O
Second: CCNC(=O)NC(=O)/C(C#N)=N/OC
The log10 vapour pressure (mmHg) of the first is higher: -2.06 for the first, -5.95 for the second.

First: CCCCCC1CCCCC1
Second: C#CCN1CC(=O)N(COC(=O)[C@@H]2[C@@H](C=C(C)C)C2(C)C)C1=O
The log10 vapour pressure (mmHg) of the first is higher: -0.429 for the first, -7.87 for the second.

Compared with `c1ccc2c(c1)NCCN2`, `CC1(C)CCc2ccccc21` is lower in boiling point: 289 °C for the first, 191 °C for the second.

Compared with `Clc1ccccc1-c1ccccc1`, `ClCc1cccc2ccccc12` is higher in boiling point: 274 °C for the first, 292 °C for the second.

Compared with `c1ncncn1`, `F[Si](F)(F)c1ccccc1` is lower in boiling point: 114 °C for the first, 102 °C for the second.

Compared with `N#CCCN`, `NCCCCCCN` is higher in boiling point: 185 °C for the first, 205 °C for the second.

Going from `FCI` to `CCCCS`, the boiling point rises from 53.4 °C to 98.5 °C.

Compared with `CCCCCCCCCc1cccc2ccccc12`, `CCCCNc1ccccc1` is lower in boiling point: 366 °C for the first, 244 °C for the second.

First: CCCCCCC(Br)CBr (stereo not given)
Second: CCCCCC1CCCCC1
The boiling point of the first is higher: 241 °C for the first, 204 °C for the second.

First: CC(C)(O)C(=O)O
Second: O=C(O)COc1ccccc1
The boiling point of the first is lower: 212 °C for the first, 285 °C for the second.

First: C1=CCNC1
Second: C1=NNCC1
The boiling point of the first is lower: 90.5 °C for the first, 144 °C for the second.

Going from `O=[N+]([O-])c1cc(C(F)(F)F)ccc1Cl` to `O=C(Cl)C(F)(F)C(F)(F)C(F)(F)F`, the boiling point falls from 222 °C to 38.5 °C.

Compared with `ClCC(Cl)(Cl)C(Cl)(Cl)Cl`, `CC(C)=CCCl` is lower in boiling point: 216 °C for the first, 109 °C for the second.

Compared with `N#CCc1ccc2ccccc2c1`, `CCc1cnc2ccccc2c1` is lower in boiling point: 303 °C for the first, 266 °C for the second.

Compared with `FC(F)(F)C(F)(F)C(F)(F)C(F)(F)C(F)(F)I`, `N#Cc1cccc(F)c1` is higher in boiling point: 94.4 °C for the first, 182 °C for the second.

Going from `OCc1ccccc1` to `Brc1ccc2cccnc2c1`, the boiling point rises from 205 °C to 290 °C.

First: O=C=C=C=O
Second: CCC1(O)CCCCC1
The boiling point of the first is lower: 6.8 °C for the first, 166 °C for the second.

Compared with `c1ccc2c(c1)NCCN2`, `OCc1ccccc1` is lower in melting point: 99 °C for the first, -15.2 °C for the second.

Going from `Oc1ccc2ccccc2c1Br` to `ClCc1cccc2ccccc12`, the melting point falls from 84 °C to 32 °C.

Compared with `Clc1ccccc1-c1ccccc1`, `O=C(c1ccccc1)c1ccccc1O` is higher in melting point: 34 °C for the first, 40 °C for the second.

Going from `c1ncncn1` to `O=C(O)c1cncc(C(=O)O)c1`, the melting point rises from 86 °C to 324 °C.

Compared with `CC(C)CCCCCCCCCCCO`, `CCCCCCCCCC(Br)C(=O)O` (stereo not given) is lower in melting point: 10.5 °C for the first, 10 °C for the second.

First: C[C@H](CCC(=O)O)[C@H]1CC[C@H]2[C@@H]3CCC4CCCC[C@]4(C)[C@H]3CC[C@]12C (stereo not given in full)
Second: CC(=O)OCC(=O)[C@@]1(O)CC[C@H]2[C@@H]3CCC4=CC(=O)CC[C@]4(C)[C@H]3C(=O)C[C@@]21C
The melting point of the first is lower: 164 °C for the first, 222 °C for the second.

Compared with `NC(=O)OCC(O)c1ccccc1` (stereo not given), `O=C(O)COc1ccccc1` is lower in melting point: 112 °C for the first, 98.5 °C for the second.

First: c1ccc2c(c1)CCc1ccccc1N2C1CN2CCC1CC2 (stereo not given)
Second: CC[C@H]1C[N@@]2CC[C@H]1C[C@@H]2[C@@H](O)c1ccnc2ccccc12
The melting point of the first is lower: 150 °C for the first, 268 °C for the second.

Compared with `CCCCCCCCCc1cccc2ccccc12`, `CCCCNc1ccccc1` is lower in melting point: 8 °C for the first, -14.4 °C for the second.

Going from `CC(C)(O)C(=O)O` to `O=C(O)c1cc(O)cc(C(=O)O)c1`, the melting point rises from 82.5 °C to 293 °C.

Compared with `CCCCCC1CCCCC1`, `CCC1(O)CCCCC1` is higher in melting point: -57.5 °C for the first, 34.5 °C for the second.

Compared with `O=[N+]([O-])c1cc(C(F)(F)F)ccc1Cl`, `O=[N+]([O-])c1ccco1` is higher in melting point: -2.5 °C for the first, 30 °C for the second.

Going from `ClCC(Cl)(Cl)C(Cl)(Cl)Cl` to `COc1ccc(Cl)c(Cl)c1Cl`, the melting point rises from 26 °C to 69.5 °C.

Compared with `CN(C)C1=NC(=O)C(c2ccccc2)O1` (stereo not given), `F[Si](F)(F)c1ccccc1` is lower in melting point: 134 °C for the first, -18 °C for the second.

Compared with `Oc1cc(F)cc(F)c1F`, `Fc1cc(F)c(F)c(-c2c(F)c(F)cc(F)c2F)c1F` is higher in melting point: 29 °C for the first, 85 °C for the second.

Compared with `CCNC(=O)NC(=O)/C(C#N)=N/OC`, `CCCCNC(=O)NS(=O)(=O)c1ccc(C)cc1` is lower in melting point: 160 °C for the first, 128 °C for the second.

Going from `CCCCS` to `CCCCCS(=O)(=O)O`, the melting point rises from -116 °C to 15.9 °C.

Going from `N#CCc1ccc2ccccc2c1` to `Brc1ccc2cccnc2c1`, the melting point falls from 83 °C to 34 °C.

Going from `FC(F)(F)C(F)(F)C(F)(F)C(F)(F)C(F)(F)I` to `N#Cc1cccc(F)c1`, the melting point rises from -50 °C to -16 °C.

First: O=C1CCCCCCCCCCCN1
Second: Nc1cccc2cnccc12
The melting point of the first is higher: 152 °C for the first, 128 °C for the second.

Compared with `CCc1nc(CC)nc(NS(=O)(=O)c2ccc(N)cc2)n1`, `O=C(OCCOc1ccc(Cl)cc1Cl)c1ccccc1` is lower in melting point: 187 °C for the first, 66 °C for the second.

First: CCCCCCCCCC(=O)OC(=O)CCCCCCCCC
Second: NCCCCCCN
The melting point of the first is lower: 24.7 °C for the first, 41.5 °C for the second.

Compared with `O=C=C=C=O`, `O=C(c1ccccc1)C(Cl)c1ccccc1` (stereo not given) is higher in melting point: -107 °C for the first, 68.5 °C for the second.

Compared with `C[C@H](Oc1ccc(Oc2nc3ccc(Cl)cc3o2)cc1)C(=O)O`, `OCCN(CCO)c1ccccc1` is lower in melting point: 158 °C for the first, 57 °C for the second.

Compared with `Clc1ccccc1-c1ccccc1`, `OCc1ccccc1` is lower in log10 Henry constant (atm·m³/mol): -3.13 for the first, -6.47 for the second.

Compared with `Clc1cccc(-c2c(Cl)c(Cl)c(Cl)c(Cl)c2Cl)c1Cl`, `CCCCS` is higher in log10 Henry constant (atm·m³/mol): -4.85 for the first, -2.34 for the second.

First: Clc1ccccc1-c1ccccc1
Second: OCc1ccccc1
The log10 Koc (L/kg) of the first is higher: 3.47 for the first, 1.1 for the second.

First: CCNC(=O)NC(=O)/C(C#N)=N/OC
Second: O=c1[nH]cc(N(CCCl)CCCl)c(=O)[nH]1
The log10 Koc (L/kg) of the first is higher: 2.09 for the first, 1.46 for the second.
